{
  "source": "patent US7326731B2",
  "about": "“Muscarinic agonists” (Eli Lilly and Company, priority 2002, dated 2008)",
  "system": "Male Sprague-Dawley rats",
  "conditions": "six-hour delay",
  "note": "Like-named read-outs stand apart in the source and are kept apart here.",
  "data": [
    {"molecule": "Nc1c2c(nc3ccccc13)CCCC2", "note": "[Tacrine, tacrine]", "values": [
      {"measurement": "retention in the eight arm radial maze", "setting": "3 mg/kg s.c. immediately after the sampling phase", "value": "not"},
      {"measurement": "retention in the eight arm radial maze", "setting": "10 mg/kg s.c. immediately after the sampling phase", "value": "significantly improved retention"}
    ]}
  ]
}
